Laboratory results as given in the SangsterLogP compilation.

Experiment: method code SF, from DOI: 10.1016/0223-5234(96)88223-7

Row | SMILES | logP
1 | Cc1ccc(-c2nc3ccccc3[nH]2)cc1 | 3.67
2 | Nc1ccc(Cc2nc3ccc(Cl)cc3[nH]2)cc1 | 3.2
3 | COc1ccccc1-c1nc2ccccc2[nH]1 | 3.02
4 | Cc1ccc(-c2nc3ccc([N+](=O)[O-])cc3[nH]2)c(C)c1 | 4.1
5 | Cc1ccc(Cc2nc3ccc(Cl)cc3[nH]2)cc1 | 5.21
6 | Clc1ccc2nc(Cc3ccc(Br)cc3)[nH]c2c1 | 5.38
7 | Cc1ccccc1-c1nc2ccc([N+](=O)[O-])cc2[nH]1 | 3.42
8 | COc1ccc(Cc2nc3ccc([N+](=O)[O-])cc3[nH]2)cc1 | 3.48
9 | COc1ccc(-c2nc3ccc(C)cc3[nH]2)c(OC)c1 | 3.78
10 | Clc1ccc(Cc2nc3ccc(Cl)cc3[nH]2)cc1 | 5.18

The next lines start with the values.

Row | logP | SMILES
11 | 4.82 | CC(C)(C)c1ccc(-c2nc3ncccc3[nH]2)cc1
12 | 3.42 | CCc1ccc(-c2nc3ncccc3[nH]2)cc1
13 | 3.02 | Cc1ccc(-c2nc3ncccc3[nH]2)cc1
14 | 2.95 | Clc1ccc(-c2nc3ncccc3[nH]2)cc1
15 | 2.52 | Fc1ccc(-c2nc3ncccc3[nH]2)cc1
